Data: patent publication US20230026271A1, “Piperazine Compounds for Inhibiting CPS1” (Eisai R&D Management Co., Ltd., priority 2019, published 2023)

Molecular target: T1, CPS1 (Homo sapiens, UniProt P31327)
T1 construct: The full length, human CPS1 gene was cloned into pFastBac HTA; His6 (from the pFastBac HTA vector); made in house; host or cells: SF21 insect cells (baculovirus, Bac-to-bac)
T1 sequence (P31327 39-1500): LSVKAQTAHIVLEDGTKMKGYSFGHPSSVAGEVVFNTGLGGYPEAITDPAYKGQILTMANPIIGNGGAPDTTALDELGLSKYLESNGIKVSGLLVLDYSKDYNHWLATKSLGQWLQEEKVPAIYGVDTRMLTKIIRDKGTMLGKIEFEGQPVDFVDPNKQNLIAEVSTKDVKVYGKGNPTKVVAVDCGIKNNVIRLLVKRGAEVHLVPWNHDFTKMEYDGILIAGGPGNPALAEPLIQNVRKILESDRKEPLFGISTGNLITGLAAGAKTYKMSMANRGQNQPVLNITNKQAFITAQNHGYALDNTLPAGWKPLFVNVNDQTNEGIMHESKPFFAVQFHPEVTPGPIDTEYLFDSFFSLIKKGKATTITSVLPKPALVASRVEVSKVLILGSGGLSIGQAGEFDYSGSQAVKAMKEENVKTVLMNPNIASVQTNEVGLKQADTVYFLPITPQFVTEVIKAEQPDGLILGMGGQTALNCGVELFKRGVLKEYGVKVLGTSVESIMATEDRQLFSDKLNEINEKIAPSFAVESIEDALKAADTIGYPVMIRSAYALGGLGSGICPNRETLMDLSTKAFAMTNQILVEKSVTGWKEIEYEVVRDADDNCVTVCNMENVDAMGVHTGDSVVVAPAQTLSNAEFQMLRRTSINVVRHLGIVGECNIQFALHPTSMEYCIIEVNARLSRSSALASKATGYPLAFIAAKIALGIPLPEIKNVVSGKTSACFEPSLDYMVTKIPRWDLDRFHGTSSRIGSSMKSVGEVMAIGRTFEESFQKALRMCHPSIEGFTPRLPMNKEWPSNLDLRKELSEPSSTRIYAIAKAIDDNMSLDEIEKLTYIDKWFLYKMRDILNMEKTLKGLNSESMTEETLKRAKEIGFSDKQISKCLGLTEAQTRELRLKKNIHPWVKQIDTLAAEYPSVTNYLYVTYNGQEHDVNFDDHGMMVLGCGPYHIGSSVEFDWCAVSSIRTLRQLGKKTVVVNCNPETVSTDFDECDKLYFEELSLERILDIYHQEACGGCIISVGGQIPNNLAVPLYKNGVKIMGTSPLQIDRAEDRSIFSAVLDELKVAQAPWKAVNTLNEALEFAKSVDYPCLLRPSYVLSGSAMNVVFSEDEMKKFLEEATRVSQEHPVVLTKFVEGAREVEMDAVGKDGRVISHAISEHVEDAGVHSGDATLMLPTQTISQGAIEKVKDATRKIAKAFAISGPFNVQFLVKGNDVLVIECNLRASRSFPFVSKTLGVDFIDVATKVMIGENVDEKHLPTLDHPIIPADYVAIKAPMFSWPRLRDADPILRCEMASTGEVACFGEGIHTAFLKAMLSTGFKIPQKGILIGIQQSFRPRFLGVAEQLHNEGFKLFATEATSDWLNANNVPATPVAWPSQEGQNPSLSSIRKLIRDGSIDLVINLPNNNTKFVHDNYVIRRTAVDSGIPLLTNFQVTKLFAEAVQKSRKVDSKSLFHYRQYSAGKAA
Assay: ADP-Glo endpoint assay measuring the ATPase activity of CPS1
Assay type: biochemical
Details: geometric mean of a minimum of two values; 50 nM CPS1, 10 μM ATP, 0.2 mM NAG, 60 min at room temperature; read-out: ADPGlo IC50
Description: CPS1 was expressed and purified from SF21 insect cells. The full length, human CPS1 gene was cloned into pFastBac HTA and baculovirus was generated using the Bac-to-bac expression system from Invitrogen. P3 virus was used to infect SF21 insect cells at a density of 1.5E6 cells/mL at an MOI of 2. Cells were harvested by centrifugation after 60 hrs and the cell pellet resuspended in lysis buffer (50 mM glycyl glycine pH 7.4, 20 mM KCl, 1 mM TCEP, 10% glycerol and 20 mM imidazole with Roche protease inhibitor tablet) before being lysed with 40 strokes of a Dounce homogenizer on ice. The insoluble fraction of the lysate was then cleared by centrifugation at 30,000 rpm for 30 min. 40 mL of supernatant was mixed with 2 mL of Ni NTA beads for 45 min at 4° C. in a 50 mL conical tube.
The beads were washed with 40 mL of wash buffer (50 mM glycyl glycine pH 7.4, 500 mM NaCl, 1 mM TCEP, 10% glycerol and 50 mM imidazole) by centrifugation and resuspension of the beads three times. Bound CPS1 protein was eluted in 6 mL of elution buffer (50 mM glycyl glycine pH 7.4, 500 mM NaCl, 1 mM TCEP, 10% glycerol and 250 mM imidazole) three times. Elution fractions were combined and concentrated using an Amicon Ultra centrifugation filter with a 10,000 molecular weight cut off. Imidazole was removed by repeated concentration and resuspension in storage buffer in the filter device (50 mM glycyl glycine pH 7.4, 500 mM NaCl, 1 mM TCEP and 20% glycerol). CPS1 was concentrated to a final concentration of ˜3 mg/mL before being aliquoted, flash frozen in liquid nitrogen and stored at −80° C.
CPS1 activity was measured and compounds profiled in an endpoint assay measuring the ATPase activity of CPS1 using the ADP-Glo kit from Promega. 50 nM CPS1 was incubated alone or with varying amounts of tested compound from DMSO stocks in assay buffer (50 mM HEPES pH 7.0, 12.5 mM KHCO3, 1.5 mM (NH4)2SO3, 5 mM MgCl2, 50 mM KCl, 1 mM TCEP, 0.01% TritonX 100, 0.0025% BSA and 0.2 mM NAG) for 20 min in a 3 μL volume in a 384-well plate (Corning Cat#3820). The final concentration of DMSO was 0.04%. The reaction was initiated by the addition of 10 μM ATP, bringing the final volume to 6 μL. After 60 min at room temperature, the reaction was terminated with 3 μL ADP-Glo reagent and incubated at room temperature for 30 min. 3 μL of kinase detection reagent was then added and luminescent signal measured on an Envision plate reader after 30 min.

Row | SMILES | IC50 [µM]
1 | COc1ccc(C(=O)N2[C@H](C)CN(C(=O)c3c[nH]c4ccc(O)cc34)C[C@H]2C)c(F)c1 [Compound 98, ((3R,5R)-4-(2-fluoro-4-methoxybenzoyl)-3,5-dimethylpiperazin-1-yl)(5-hydroxy-1H-indol-3-yl)methanone] | > 66.7
2 | COc1ccc(C(=O)N2[C@H](C)CN(C(=O)c3cccc(OC)c3F)C[C@H]2C)c(F)c1 [Compound 92, ((2R,6R)-4-(2-fluoro-3-methoxybenzoyl)-2,6-dimethylpiperazin-1-yl)(2-fluoro-4-methoxyphenyl)methanone] | > 66.7
3 | COc1ccc(C(=O)N2C[C@H](C)N(C(=O)c3ccc(OC)cc3F)[C@@H](C)C2)c(F)c1 [Compound 49, ((2S,6S)-2,6-Dimethylpiperazine-1,4-diyl)bis((2-fluoro-4-methoxyphenyl)methanone)] | 6.56
4 | COc1ccc(C(=O)N2C[C@@H](C)N(C(=O)c3ccc(OC)cc3)[C@H](C)C2)cc1 [Compound 63, ((2R,6R)-2,6-dimethylpiperazine-1,4-diyl)bis((4-methoxyphenyl)methanone)] | 4.74
5 | COc1ccc(C(=O)N2[C@H](C)CN(C(=O)c3ccc(OC)cc3OC)C[C@H]2C)c(F)c1 [Compound 100, ((2R,6R)-4-(2,4-dimethoxybenzoyl)-2,6-dimethylpiperazin-1-yl)(2-fluoro-4-methoxyphenyl)methanone] | > 66.7
6 | COc1ccc(C(=O)N2C[C@@H](C)N(C(=O)c3ccc(OC)cc3)[C@H](C)C2)cc1 [Compound 105, ((2R,6R)-2,6-dimethylpiperazine-1,4-diyl)bis((4-methoxyphenyl)methanone)] | 3.19
7 | COc1ccc(C(=O)N2[C@H](C)CN(C(=O)c3cnc(N)s3)C[C@H]2C)c(F)c1 [Compound 107, (2-aminothiazol-5-yl)((3R,5R)-4-(2-fluoro-4-methoxybenzoyl)-3,5-dimethylpiperazin-1-yl)methanone] | 6.44
8 | COc1ccc(C(=O)N2C[C@@H](C)N(C(=O)c3ccc4cc[nH]c4c3F)[C@H](C)C2)c(F)c1 [Compound 73, (7-fluoro-1H-indol-6-yl)((2R,6R)-4-(2-fluoro-4-methoxybenzoyl)-2,6-dimethylpiperazin-1-yl)methanone] | 11.6

Stronger by IC50, values ahead:

Row | IC50 [µM] | SMILES
9 | 0.171 | COc1ccc(C(=O)N2[C@H](C)CN(C(=O)c3ccc4cc(C)[nH]c4c3)C[C@H]2C)c(F)c1 [Compound 7, ((2R,6R)-2,6-Dimethyl-4-(2-methyl-1H-indole-6-carbonyl)piperazin-1-yl)(2-fluoro-4-methoxyphenyl)methanone]
10 | 0.711 | COc1ccc(C(=O)N2[C@H](C)CN(C(=O)c3ccc4c[nH]nc4c3)C[C@H]2C)c(F)c1 [Compound 13, ((2R,6R)-4-(2H-Indazole-6-carbonyl)-2,6-dimethylpiperazin-1-yl)(2-fluoro-4-methoxyphenyl)methanone]
11 | 0.358 | COc1ccc(C(=O)N2C[C@@H](C)N(C(=O)c3ccc(C)cc3F)[C@H](C)C2)c(F)c1 [Compound 22, ((2R,6R)-4-(2-Fluoro-4-methoxybenzoyl)-2,6-dimethylpiperazin-1-yl)(2-fluoro-4-methylphenyl)methanone]
12 | 0.526 | COc1ccc(C(=O)N2[C@H](C)CN(C(=O)c3cc(Cl)c4cc[nH]c4c3)C[C@H]2C)c(F)c1 [Compound 17, (4-Chloro-1H-indol-6-yl)((3R,5R)-4-(2-fluoro-4-methoxybenzoyl)-3,5-dimethylpiperazin-1-yl)methanone]
13 | 2.51 | COc1ccc(C(=O)N2[C@H](C)CN(C(=O)c3cnc4cc[nH]c4c3)C[C@H]2C)c(F)c1 [Compound 37, ((2R,6R)-2,6-Dimethyl-4-(1H-pyrrolo[3,2-b]pyridine-6-carbonyl)piperazin-1-yl)(2-fluoro-4-methoxyphenyl)methanone]
14 | 2.13 | COc1ccc(C(=O)N2C[C@@H](C)N(C(=O)c3cc4cc(O)ccc4[nH]3)[C@H](C)C2)c(F)c1 [Compound 55, ((2R,6R)-4-(2-fluoro-4-methoxybenzoyl)-2,6-dimethylpiperazin-1-yl)(5-hydroxy-1H-indol-2-yl)methanone]
